Experimental data as given in patent publication US6274606A, “Methods of treating central nervous system disorders with aryl substituted olefinic amine compounds” (Targacept, Inc., priority 1998, dated 2001).

Tests used:
Format in all cases: cell-based
[1] = molecular target: T1, ganglionic receptors (Rattus norvegicus, UniProt P04757+P12392); assay: cell-based; conditions: for Ganglion Effect (% nicotine): ganglionic cell preparations
T1 construct: endogenous in cells; host or cells: cell preparations derived from the adrenal gland

[2] = tested on: CNS nicotinic receptors; assay: Determination of Dopamine Release
Method: As such, these compounds have the ability to cause relevant neurons to release or secrete acetylcholine, dopamine, and other neurotransmitters. […] Certain compounds of the present invention can provide secretion of dopamine in an amount which can exceed that elicited by an equal molar amount of (S)-(-)-nicotine.
Determination of Dolpamine Release
Dopamine release was measured using the techniques described in U.S. Pat. No. 5,597,919 to Dull et al., the subject matter of which is already incorporated herein by reference in its entirety. […] Reported EC50 is expressed in nM and Emax represent the amount released relative to nicotine.

[3] = molecular target: T2, muscle receptors (Homo sapiens, UniProt P02708+P07510+Q07001); conditions: muscle cell preparations
T2 construct: endogenous in cells; host or cells: cell preparations derived from muscle
T2 sequence (P07510 23-517): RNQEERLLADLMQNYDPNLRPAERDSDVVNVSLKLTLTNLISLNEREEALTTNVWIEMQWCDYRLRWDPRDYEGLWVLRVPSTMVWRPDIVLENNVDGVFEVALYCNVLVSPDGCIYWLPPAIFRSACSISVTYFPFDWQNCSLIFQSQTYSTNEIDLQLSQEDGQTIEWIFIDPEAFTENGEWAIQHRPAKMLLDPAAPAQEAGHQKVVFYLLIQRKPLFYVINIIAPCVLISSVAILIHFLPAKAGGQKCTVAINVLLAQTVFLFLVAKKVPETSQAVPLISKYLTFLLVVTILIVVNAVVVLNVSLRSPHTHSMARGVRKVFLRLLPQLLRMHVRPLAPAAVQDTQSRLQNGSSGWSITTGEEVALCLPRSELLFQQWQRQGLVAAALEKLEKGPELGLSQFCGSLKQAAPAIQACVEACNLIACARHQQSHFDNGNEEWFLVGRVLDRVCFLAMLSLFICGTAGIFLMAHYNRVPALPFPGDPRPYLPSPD
T2 sequence (P11230 24-501, further chain): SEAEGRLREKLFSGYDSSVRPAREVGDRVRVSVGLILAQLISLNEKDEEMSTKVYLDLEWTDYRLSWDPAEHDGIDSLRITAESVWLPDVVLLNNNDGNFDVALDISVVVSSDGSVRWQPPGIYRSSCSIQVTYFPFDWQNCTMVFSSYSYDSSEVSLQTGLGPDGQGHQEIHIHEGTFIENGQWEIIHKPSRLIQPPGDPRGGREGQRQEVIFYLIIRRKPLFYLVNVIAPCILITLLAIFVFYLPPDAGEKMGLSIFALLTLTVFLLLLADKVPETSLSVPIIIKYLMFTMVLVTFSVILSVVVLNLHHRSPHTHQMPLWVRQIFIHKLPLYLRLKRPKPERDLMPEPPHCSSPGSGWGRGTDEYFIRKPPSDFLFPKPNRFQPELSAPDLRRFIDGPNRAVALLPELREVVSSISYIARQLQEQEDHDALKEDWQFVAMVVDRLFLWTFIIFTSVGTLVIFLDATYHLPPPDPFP
T2 sequence (Q07001 22-517): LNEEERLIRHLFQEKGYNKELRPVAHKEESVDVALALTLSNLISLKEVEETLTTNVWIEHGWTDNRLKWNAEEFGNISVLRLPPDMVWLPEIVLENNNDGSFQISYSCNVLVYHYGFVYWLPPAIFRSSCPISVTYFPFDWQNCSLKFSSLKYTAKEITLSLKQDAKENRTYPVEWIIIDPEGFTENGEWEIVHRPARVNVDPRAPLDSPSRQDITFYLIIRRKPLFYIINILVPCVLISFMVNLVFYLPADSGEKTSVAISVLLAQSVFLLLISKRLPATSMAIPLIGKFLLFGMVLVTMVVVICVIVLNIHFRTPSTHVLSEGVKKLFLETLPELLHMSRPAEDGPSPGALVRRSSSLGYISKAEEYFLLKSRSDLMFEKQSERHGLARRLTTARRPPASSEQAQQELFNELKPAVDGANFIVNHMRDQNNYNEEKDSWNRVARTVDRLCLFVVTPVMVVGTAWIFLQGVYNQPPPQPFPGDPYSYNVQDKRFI
T2 sequence (P02708 21-457): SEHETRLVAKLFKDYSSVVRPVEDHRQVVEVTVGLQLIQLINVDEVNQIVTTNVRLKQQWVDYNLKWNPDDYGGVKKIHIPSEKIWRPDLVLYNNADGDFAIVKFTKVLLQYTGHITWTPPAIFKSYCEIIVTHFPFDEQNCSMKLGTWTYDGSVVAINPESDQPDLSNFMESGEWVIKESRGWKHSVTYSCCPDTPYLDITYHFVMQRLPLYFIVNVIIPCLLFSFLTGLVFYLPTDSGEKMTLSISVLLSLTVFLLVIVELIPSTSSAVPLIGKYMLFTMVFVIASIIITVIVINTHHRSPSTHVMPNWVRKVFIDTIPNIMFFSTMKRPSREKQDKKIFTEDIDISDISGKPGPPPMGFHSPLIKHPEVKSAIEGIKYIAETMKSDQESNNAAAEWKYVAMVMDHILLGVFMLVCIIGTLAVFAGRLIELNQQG

T1 sequence (P04757 26-499): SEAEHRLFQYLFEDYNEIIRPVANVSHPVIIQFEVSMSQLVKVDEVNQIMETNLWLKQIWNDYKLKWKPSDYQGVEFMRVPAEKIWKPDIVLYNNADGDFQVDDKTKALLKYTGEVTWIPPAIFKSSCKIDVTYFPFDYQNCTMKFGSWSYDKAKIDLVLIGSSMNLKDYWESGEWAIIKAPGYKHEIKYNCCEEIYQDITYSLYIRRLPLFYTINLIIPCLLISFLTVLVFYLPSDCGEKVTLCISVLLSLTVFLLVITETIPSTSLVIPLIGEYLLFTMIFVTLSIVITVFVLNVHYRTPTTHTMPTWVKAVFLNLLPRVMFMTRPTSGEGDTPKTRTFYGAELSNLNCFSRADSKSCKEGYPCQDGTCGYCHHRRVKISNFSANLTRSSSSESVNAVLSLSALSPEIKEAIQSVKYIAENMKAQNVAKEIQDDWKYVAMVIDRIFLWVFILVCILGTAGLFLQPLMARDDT
T1 sequence (P12392 21-495): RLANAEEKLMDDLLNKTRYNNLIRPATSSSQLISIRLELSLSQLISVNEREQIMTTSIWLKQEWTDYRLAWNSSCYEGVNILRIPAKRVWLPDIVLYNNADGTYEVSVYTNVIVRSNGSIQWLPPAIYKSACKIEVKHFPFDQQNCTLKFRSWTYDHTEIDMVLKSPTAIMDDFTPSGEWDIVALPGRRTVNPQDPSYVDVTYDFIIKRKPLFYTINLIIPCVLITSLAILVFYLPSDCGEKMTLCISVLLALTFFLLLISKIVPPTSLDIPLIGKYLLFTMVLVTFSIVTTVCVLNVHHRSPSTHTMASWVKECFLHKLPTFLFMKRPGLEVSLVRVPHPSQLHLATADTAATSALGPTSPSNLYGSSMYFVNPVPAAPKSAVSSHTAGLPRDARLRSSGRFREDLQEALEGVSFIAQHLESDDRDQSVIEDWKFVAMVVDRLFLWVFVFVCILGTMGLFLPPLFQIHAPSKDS

SMILES | Ganglion Effect (% nicotine) [1] | other results
CNCC/C=C/c1cncc(OCc2ccccc2)c1 [Sample No. 1, (E)-N-Methyl-4-[3-(5-benzyloxypyridin)yl]-3-buten-1-amine] | 0 | –
NCC/C=C/c1cncc(Br)c1 [Sample No. 2, (E)-4-[3-(5-Bromopyridin)yl]-3-buten-1-amine Hemifumarate] | 11 | EC50 [2]: 2.4 µM; Dopamine Release Emax ([2]; percentage of release obtained with a concentration of (S)-(-)-nicotine resulting in maximal effects): 107%; Muscle Effect (% nicotine) [3]: 8
CNCC/C=C/c1cncc(Oc2ccccc2)c1 [Sample No. 3, (E)-N-Methyl-4-[3-(5-phenoxypyridin)yl]-3-buten-1-amine] | < 15 | –
CNCC/C=C/c1cncc(OC(C)C)c1 [Sample No. 4, (E)-N-Methyl-4-[3-(5-isopropoxypyridin)yl]-3-buten-1-amine] | < 15 | –
CNCC/C=C/c1cncc(COC)c1 [Sample No. 5, (E)-N-Methyl-4-[3-(5-methoxymethylpyridin)yl]-3-buten-1-amine] | 0 | –
NCC/C=C/c1cccnc1.O=C(O)/C=C/C(=O)O.O=C(O)/C=C/C(=O)O [Sample No. 6, (E)-4-(3-pyridinyl)-3-buten-1-amine difumarate] | 23 | –
CCOc1cncc(/C=C/CCNC)c1 [Sample No. 7, (E)-N-Methyl-4-[3-(5-ethoxypyridin)yl]-3-buten-1-amine Sesquifumarate] | – | Emax ([1]; read-out: Ganglion Effect (% nicotine)): < 15%
CNCC/C=C/c1cncc(-c2ccccc2)c1 [Sample No. 8, (E)-N-Methyl-4-[3-(5-phenylpyridin)yl]-3-buten-1-amine] | 0 | –
CNCC/C=C/c1cncc(N)c1 [Sample No. 9, (E)-N-methyl-4-[3-(5-aminopyridin)yl]-3-buten-1-amine] | 4 | –
